# Values joined by “and” are separate entries in the source; they are usually repeats but may differ in a detail not shown here. Equal entries are not always repeated. Inconclusive results and toxic doses are left out.
# System: P388 leukemia ip, CD2F1 mice, survival T/C
# Assay: NCI In Vivo Anticancer Drug Screen. Data for tumor model P388 Leukemia (intraperitoneal) in CD2F1 (CDF1) mice
# Details: endpoint: median survival time, higher = longer survival
# Summary of the method: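 Mice carrying the transplanted tumor received test compound or vehicle. Survival was recorded in each group, and the value is the treated-group measurement divided by that of the vehicle-treated control group.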
# [1] = dose: 50.0 mg/kg/injection, schedule: Q01DX005 (ip), vehicle: Klucel (hydroxypropylcellulose) (HPC)
# [2] = dose: 100.0 mg/kg/injection, schedule: Q01DX005 (ip), vehicle: Klucel (hydroxypropylcellulose) (HPC)
# [3] = dose: 50.0 mg/kg/injection, schedule: Q01DX009 (ip), vehicle: Klucel (hydroxypropylcellulose) (HPC)
# [4] = dose: 100.0 mg/kg/injection, schedule: Q01DX009 (ip), vehicle: Klucel (hydroxypropylcellulose) (HPC)
# [5] = dose: 25.0 mg/kg/injection, schedule: Q01DX001 (ip), vehicle: Klucel (hydroxypropylcellulose) (HPC)
# [6] = dose: 50.0 mg/kg/injection, schedule: Q01DX001 (ip), vehicle: Klucel (hydroxypropylcellulose) (HPC)
# [7] = dose: 50.0 mg/kg/injection, schedule: Q01DX009 (ip), vehicle: saline with Tween-80
# [8] = dose: 100.0 mg/kg/injection, schedule: Q01DX009 (ip), vehicle: saline with Tween-80
# [9] = dose: 200.0 mg/kg/injection, schedule: Q01DX009 (ip), vehicle: saline with Tween-80
# [10] = dose: 60.0 mg/kg/injection, schedule: Q01DX005 (ip), vehicle: saline with Tween-80
# [11] = dose: 120.0 mg/kg/injection, schedule: Q01DX005 (ip), vehicle: saline with Tween-80
structure (smiles),measurement,setting,value
CC(C)(C)C1CCC2(N3CCOCC3)C(C#N)CC2C1 (stereo not drawn),T/C,"dose: 25.0 mg/kg/injection, schedule: Q01DX005 (ip), vehicle: Klucel (hydroxypropylcellulose) (HPC)",105 % of control
same,T/C,[1],102 % of control
same,T/C,"dose: 50.0 mg/kg/injection, schedule: Q01DX005 (ip), vehicle: saline + Tween-80 + alcohol",105 % of control
same,T/C,[2],103 % of control
same,T/C,"dose: 100.0 mg/kg/injection, schedule: Q01DX005 (ip), vehicle: saline + Tween-80 + alcohol",110 % of control
same,T/C,"dose: 200.0 mg/kg/injection, schedule: Q01DX005 (ip), vehicle: Klucel (hydroxypropylcellulose) (HPC)",97 % of control
same,T/C,"dose: 200.0 mg/kg/injection, schedule: Q01DX005 (ip), vehicle: saline + Tween-80 + alcohol",94 % of control
O=C1C2C3C=CC(O3)C2C(=O)N1O (stereo not drawn),T/C,"dose: 3.13 mg/kg/injection, schedule: Q01DX009 (ip), vehicle: water",102 % of control
same,T/C,"dose: 6.25 mg/kg/injection, schedule: Q01DX009 (ip), vehicle: water",112 % of control
same,T/C,"dose: 12.5 mg/kg/injection, schedule: Q01DX009 (ip), vehicle: water",121 % of control
same,T/C,"dose: 25.0 mg/kg/injection, schedule: Q01DX009 (ip), vehicle: water",118 % of control
same,T/C,"dose: 50.0 mg/kg/injection, schedule: Q01DX009 (ip), vehicle: water",105 % of control
CC(=O)OC1N(C(C)=O)C(SC23CC4CC(CC(C4)C2)C3)C(C)=CC1(C)OC(C)=O (stereo not drawn),T/C,[3],111 % of control
same,T/C,[4],110 % of control
same,T/C,"dose: 200.0 mg/kg/injection, schedule: Q01DX009 (ip), vehicle: Klucel (hydroxypropylcellulose) (HPC)",105 % of control
FC(F)(F)COc1ccc(-c2nnc(-c3ccc(OCC(F)(F)F)cc3)o2)cc1,T/C,"dose: 100.0 mg/kg/injection, schedule: Q04DX002 (ip), vehicle: saline with Tween-80",90 % of control
same,T/C,"dose: 200.0 mg/kg/injection, schedule: Q04DX002 (ip), vehicle: saline with Tween-80",87 % of control
same,T/C,"dose: 400.0 mg/kg/injection, schedule: Q04DX002 (ip), vehicle: saline with Tween-80",86 % of control
O=C(O)c1ccc2c3c(n[se]c13)-c1ccccc1C2=O,T/C,[1],99 % of control
same,T/C,[2],103 % of control
NC(=S)c1ccc(N=Cc2ccccc2)cc1,T/C,"dose: 12.5 mg/kg/injection, schedule: Q01DX001 (ip), vehicle: Klucel (hydroxypropylcellulose) (HPC)",101 % of control
same,T/C,[5],101 % of control
same,T/C,[6],95 % of control
COC(=O)[C@@]12OC[C@@]34[C@@H](CC5=C(C)C(=O)C(O)=C[C@]5(C)[C@H]3[C@@H](O)[C@@H]1O)OC(=O)[C@H](OC(=O)/C=C(\C)C(C)(C)OC(C)=O)[C@@H]24,T/C,"dose: 0.25 mg/kg/injection, schedule: Q01DX009 (ip), vehicle: saline + alcohol",106 % of control
same,T/C,"dose: 0.5 mg/kg/injection, schedule: Q01DX009 (ip), vehicle: saline + alcohol",110 % of control and 123 % of control
same,T/C,"dose: 4.0 mg/kg/injection, schedule: Q01DX009 (ip), vehicle: saline + alcohol",157 % of control and 159 % of control
same,T/C,"dose: 8.0 mg/kg/injection, schedule: Q01DX009 (ip), vehicle: saline + alcohol",175 % of control
CCC1(O)CN2CCc3c([nH]c4ccccc34)C1C(/C=C(\C(=O)OC)c1cc3c(cc1OC)N(C)C1C(O)(C(=O)OC)C(OC(C)=O)C4(CC)C=CCN5CCC31C54)C2 (stereo not drawn),T/C,"dose: 1.0 mg/kg/injection, schedule: Q01DX001 (ip), vehicle: distilled water + Tween-80",102 % of control
same,T/C,"dose: 2.0 mg/kg/injection, schedule: Q01DX001 (ip), vehicle: distilled water + Tween-80",100 % of control
same,T/C,"dose: 2.0 mg/kg/injection, schedule: Q01DX009 (ip), vehicle: distilled water + alcohol",160 % of control
same,T/C,"dose: 4.0 mg/kg/injection, schedule: Q01DX001 (ip), vehicle: distilled water + Tween-80",100 % of control
same,T/C,"dose: 4.0 mg/kg/injection, schedule: Q01DX009 (ip), vehicle: distilled water + alcohol",152 % of control
same,T/C,"dose: 8.0 mg/kg/injection, schedule: Q01DX001 (ip), vehicle: distilled water + Tween-80",102 % of control
same,T/C,"dose: 16.0 mg/kg/injection, schedule: Q01DX001 (ip), vehicle: distilled water + Tween-80",112 % of control
same,T/C,"dose: 32.0 mg/kg/injection, schedule: Q01DX001 (ip), vehicle: distilled water + Tween-80",100 % of control
OCc1c(Cl)nc2sccn12,T/C,[5],109 % of control
same,T/C,[6],105 % of control
same,T/C,"dose: 100.0 mg/kg/injection, schedule: Q01DX001 (ip), vehicle: Klucel (hydroxypropylcellulose) (HPC)",93 % of control and 97 % of control
same,T/C,"dose: 400.0 mg/kg/injection, schedule: Q01DX001 (ip), vehicle: Klucel (hydroxypropylcellulose) (HPC)",92 % of control
CCC/C(=N\O)C(O)(CCC)CCC,T/C,[7],89 % of control
same,T/C,[8],89 % of control
same,T/C,[9],89 % of control
COc1ccc(/C=N/NC(=O)C(O)c2ccccc2)cc1 (stereo not drawn),T/C,[10],99 % of control
same,T/C,[11],90 % of control
same,T/C,"dose: 240.0 mg/kg/injection, schedule: Q01DX005 (ip), vehicle: saline with Tween-80",91 % of control
OCC1NCCC(O)C1OC1OC(CO)C(O)C(O)C1O (stereo not drawn),T/C,"dose: 6.88 mg/kg/injection, schedule: Q01DX005 (ip), vehicle: water",103 % of control
same,T/C,"dose: 13.75 mg/kg/injection, schedule: Q01DX005 (ip), vehicle: water",100 % of control
same,T/C,"dose: 27.5 mg/kg/injection, schedule: Q01DX005 (ip), vehicle: water",100 % of control
same,T/C,"dose: 55.0 mg/kg/injection, schedule: Q01DX005 (ip), vehicle: water",99 % of control
O=CNC(NC=O)NC=O,T/C,"dose: 25.0 mg/kg/injection, schedule: Q01DX009 (ip), vehicle: saline",109 % of control
same,T/C,"dose: 50.0 mg/kg/injection, schedule: Q01DX009 (ip), vehicle: saline",97 % of control
same,T/C,"dose: 100.0 mg/kg/injection, schedule: Q01DX009 (ip), vehicle: saline",105 % of control
same,T/C,"dose: 200.0 mg/kg/injection, schedule: Q01DX009 (ip), vehicle: saline",104 % of control
NC1=NC2C(Cl)=CC=CC2S1 (stereo not drawn),T/C,[3],109 % of control
same,T/C,[4],107 % of control
CCN(CC)CCOC(=O)C(OCCOc1ccccc1)(c1ccccc1)c1ccccc1,T/C,[1],117 % of control
same,T/C,[2],117 % of control
CC[N+](C)(CC)CCSC1=Nc2ccccc2N=C(c2ccc(Sc3ccccc3)cc2)C1,T/C,"dose: 1.56 mg/kg/injection, schedule: Q01DX009 (ip), vehicle: Klucel (hydroxypropylcellulose) (HPC)",117 % of control
same,T/C,"dose: 3.12 mg/kg/injection, schedule: Q01DX009 (ip), vehicle: Klucel (hydroxypropylcellulose) (HPC)",99 % of control
same,T/C,"dose: 6.25 mg/kg/injection, schedule: Q01DX009 (ip), vehicle: Klucel (hydroxypropylcellulose) (HPC)",106 % of control and 108 % of control
COC1(OC)OC(c2ccccc2)=C(c2ccccc2)C(C#N)(C#N)C1(OC)OC,T/C,"dose: 60.0 mg/kg/injection, schedule: Q01DX005 (ip), vehicle: Klucel (hydroxypropylcellulose) (HPC)",91 % of control
same,T/C,"dose: 120.0 mg/kg/injection, schedule: Q01DX005 (ip), vehicle: Klucel (hydroxypropylcellulose) (HPC)",88 % of control
same,T/C,"dose: 240.0 mg/kg/injection, schedule: Q01DX005 (ip), vehicle: Klucel (hydroxypropylcellulose) (HPC)",94 % of control
Cc1ccc(C)c(C[n+]2ccccc2C2(C)OCCO2)c1,T/C,"dose: 50.0 mg/kg/injection, schedule: Q01DX005 (ip), vehicle: saline with Tween-80",101 % of control
same,T/C,"dose: 100.0 mg/kg/injection, schedule: Q01DX005 (ip), vehicle: saline with Tween-80",103 % of control
same,T/C,"dose: 200.0 mg/kg/injection, schedule: Q01DX005 (ip), vehicle: saline with Tween-80",100 % of control
CSC(=S)NN=C1CCCC1,T/C,"dose: 12.5 mg/kg/injection, schedule: Q01DX009 (ip), vehicle: saline with Tween-80",101 % of control
same,T/C,"dose: 25.0 mg/kg/injection, schedule: Q01DX009 (ip), vehicle: saline with Tween-80",101 % of control
CN(C)CCC(C#N)(CCN(C)C)c1ccccc1,T/C,"dose: 50.0 mg/kg/injection, schedule: Q01DX005 (ip), vehicle: saline",105 % of control
same,T/C,"dose: 100.0 mg/kg/injection, schedule: Q01DX005 (ip), vehicle: saline",103 % of control
same,T/C,"dose: 200.0 mg/kg/injection, schedule: Q01DX005 (ip), vehicle: saline",106 % of control
COCC(O)Cn1ccnc1N=Nc1ccccc1 (stereo not drawn),T/C,[10],103 % of control
same,T/C,[11],102 % of control
O=C(/C=C/c1ccc(Cl)c(Cl)c1)/C=C/c1ccc(Cl)c(Cl)c1,T/C,[7],87 % of control
same,T/C,[8],100 % of control
same,T/C,[9],87 % of control
N/N=C/c1cccn1-c1ccccc1Cl,T/C,[10],93 % of control
same,T/C,[11],92 % of control

# Reference: PubChem BioAssay AID330 (DTP/NCI, 2004)
